Data on one compound can be found in patent US8785156B2, “TLE3 as a marker for chemotherapy” (Clarient Diagnostic Services, Inc., priority 2007, dated 2014).

The subject of the assay is ovarian cancer patients (UAB cohort). Description: Kaplan-Meier recurrence curves, University of Alabama at Birmingham (UAB) ovarian cancer cohort, patients classified by TLE3 antibody staining. In kind it is in vivo, human. As to conditions: all patients received paclitaxel, most also platinum chemotherapy (carboplatin or cisplatin). From the text: All patients received paclitaxel. Most patients also received platinum chemotherapy (carboplatin or cisplatin). Recurrence data from TLE3-positive and TLE3-negative patients in this subset were used to generate the top and bottom curves, respectively. As shown in the Figure, antibody binding to the TLE3 marker correlated with prognosis in these treated patients (HR=0.64, p<0.049).
Kaplan-Meier recurrence curves that were generated using patients in the RP breast cancer cohort that received chemotherapy are consistent with this prediction model (see FIG. 6, HR=0.194, p=0.010). Kaplan-Meier recurrence curves that were generated using patients in the UAB ovarian cancer cohort that received chemotherapy are also consistent with this prediction model (see FIG. 18, HR=0.64, p=0.049).

Consider `CC(=O)O[C@H]1C(=O)[C@@]2(C)[C@H]([C@H](OC(=O)c3ccccc3)[C@]3(O)C[C@H](OC(=O)[C@H](O)[C@@H](NC(=O)c4ccccc4)c4ccccc4)C(C)=C1C3(C)C)[C@]1(OC(C)=O)CO[C@@H]1C[C@@H]2O` [paclitaxel], for which the “HR (recurrence, TLE3-positive vs TLE3-negative patients)” value amounted to 0.64.
